Drawing on patent US20250145585A1, “HETEROCYCLIC INHIBITORS OF IGF-1R FOR TREATMENT OF DISEASE” (HORIZON THERAPEUTICS IRELAND DAC, priority 2023, published 2025), this text covers IC50 for 24 molecules.

For experiment [1], the target named is T1, IGF-1R (Homo sapiens, UniProt P08069).
T1 construct: expressed in transfected cells
Kind of experiment: Example B-2: IGF-1R Assay (PathHunter cell lines, EC80 agonist challenge, chemiluminescent detection). The format is cell-based. To be noted: PathHunter cells, compound 60 minutes at 37° C., EC80 agonist 3 hours; read-out: IC50, Biological Activity against IGF-1R (Table B2). In short, it runs like this: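 Read-out is PathHunter chemiluminescence, developed for 1 h at room temperature after a 3 h room-temperature EC80 agonist challenge that followed 60 min compound pre-treatment at 37° C (1% vehicle). IC50 comes from % inhibition normalized to EC80 and vehicle controls.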

In experiment [2] the target is T1, IGF-1R. Kind of experiment: Example B-1: IGF-1R Assay (PC3 cells stimulated with IGF1, AlphaLISA on cell lysates). To be noted: compound two hours, IGF1 200 ng/mL for 30 min, read-out: IC50, Biological Activity against IGF-1R (Table B1). The format is cell-based. A digest of the protocol:
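IC50 from AlphaLISA read-out of lysed PC3 cells, percent inhibition normalized between vehicle and EC80 controls. Before lysis, cells had 2 h serum-free starvation, 2 h exposure to compound in 3× dilution series, and 30 min IGF1 stimulation at final 200 ng/mL.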
For orientation: Bead proximity is the source of the signal in Alpha formats.

T1 sequence (P08069 31-1367): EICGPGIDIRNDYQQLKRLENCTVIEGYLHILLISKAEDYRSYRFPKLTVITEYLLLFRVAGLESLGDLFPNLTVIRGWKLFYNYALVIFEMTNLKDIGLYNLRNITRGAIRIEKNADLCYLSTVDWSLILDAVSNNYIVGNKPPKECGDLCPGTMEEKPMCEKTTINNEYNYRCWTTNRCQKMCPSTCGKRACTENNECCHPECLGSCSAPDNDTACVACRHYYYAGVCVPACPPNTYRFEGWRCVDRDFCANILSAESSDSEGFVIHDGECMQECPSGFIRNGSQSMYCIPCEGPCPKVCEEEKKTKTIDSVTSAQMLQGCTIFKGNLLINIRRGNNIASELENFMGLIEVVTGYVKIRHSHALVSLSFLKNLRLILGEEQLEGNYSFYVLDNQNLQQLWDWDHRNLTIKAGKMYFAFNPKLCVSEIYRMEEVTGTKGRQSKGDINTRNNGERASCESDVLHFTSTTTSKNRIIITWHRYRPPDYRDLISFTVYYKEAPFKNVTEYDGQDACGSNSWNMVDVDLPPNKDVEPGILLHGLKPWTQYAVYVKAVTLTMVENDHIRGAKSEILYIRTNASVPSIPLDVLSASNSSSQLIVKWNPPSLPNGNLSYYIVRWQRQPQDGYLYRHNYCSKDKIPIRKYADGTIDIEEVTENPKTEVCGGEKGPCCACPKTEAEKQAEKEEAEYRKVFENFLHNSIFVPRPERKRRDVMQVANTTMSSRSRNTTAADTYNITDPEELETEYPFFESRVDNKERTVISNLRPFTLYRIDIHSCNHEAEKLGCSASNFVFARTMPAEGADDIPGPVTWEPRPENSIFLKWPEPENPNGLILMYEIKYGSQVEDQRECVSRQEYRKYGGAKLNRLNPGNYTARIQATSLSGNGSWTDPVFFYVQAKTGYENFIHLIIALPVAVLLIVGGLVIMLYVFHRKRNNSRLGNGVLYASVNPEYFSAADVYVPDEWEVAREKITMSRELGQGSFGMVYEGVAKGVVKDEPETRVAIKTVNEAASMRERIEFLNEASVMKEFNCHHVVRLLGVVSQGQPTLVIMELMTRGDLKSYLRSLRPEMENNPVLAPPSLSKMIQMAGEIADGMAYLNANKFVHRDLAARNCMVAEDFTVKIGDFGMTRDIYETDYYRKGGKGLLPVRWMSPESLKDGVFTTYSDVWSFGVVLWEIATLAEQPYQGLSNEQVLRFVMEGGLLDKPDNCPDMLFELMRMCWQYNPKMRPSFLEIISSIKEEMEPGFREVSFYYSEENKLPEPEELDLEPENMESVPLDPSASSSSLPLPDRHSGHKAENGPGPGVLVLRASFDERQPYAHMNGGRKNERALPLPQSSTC

On to `CC1(C)C(=O)N(c2ccc(SC(F)(F)F)cc2)C(=O)N1Cc1ccnc2c1CCN2` [Compound 16, 1-((2,3-dihydro-1H-pyrrolo[2,3-b]pyridin-4-yl)methyl)-5,5-dimethyl-3-(4-((trifluoromethyl)thio)phenyl)imidazolidine-2,4-dione], for which the concentration for half-maximal inhibition (IC50) at IGF-1R [1] and at IGF-1R [2] was at most 500 nM each time.

Consider `COC[C@@H](C)Nc1cc(CN2C(=O)N(c3ccc(C4(C(F)(F)F)CC4)cc3)C(=O)C2(C)C)ccn1` [Compound 114, (R)-1-((2-((1-methoxypropan-2-yl)amino)pyridin-4-yl)methyl)-5,5-dimethyl-3-(4-(1-(trifluoromethyl)cyclopropyl)phenyl)imidazolidine-2,4-dione], for which the IC50 on IGF-1R [1] and at IGF-1R [2] was at most 500 nM each time.

In the case of `CN1C(=O)C(C)(C)c2ccc(N3C(=O)N(Cc4ccnc(N)c4)C(C)(C)C3=O)cc21` [Compound 110, 1-((2-aminopyridin-4-yl)methyl)-5,5-dimethyl-3-(1,3,3-trimethyl-2-oxoindolin-6-yl)imidazolidine-2,4-dione], the IC50 (as a rule, the concentration at which inhibition is half-maximal) at IGF-1R [1] was 2000 to 10000 nM; at IGF-1R [2] it was 500 to 2000 nM.

Take `CC(C)Nc1cc(CN2C(=O)N(c3ccc(C(C)(C)C)cn3)C(=O)C2(C)C)ccn1` [Compound 277, 3-(5-(tert-butyl)pyridin-2-yl)-1-((2-(isopropylamino)pyridin-4-yl)methyl)-5,5-dimethylimidazolidine-2,4-dione]: the IC50 at IGF-1R [1] and on IGF-1R [2] was at most 500 nM each time.

For `COC1(c2ccc(N3C(=O)N(Cc4ccnc(NC(C)C)c4)C(C)(C)C3=O)cc2)CC1` [Compound 104, 1-((2-(isopropylamino)pyridin-4-yl)methyl)-3-(4-(1-methoxycyclopropyl)phenyl)-5,5-dimethylimidazolidine-2,4-dione], the IC50 is 500 to 2000 nM on IGF-1R [1] and at most 500 nM on IGF-1R [2].

`CC(C)Nc1cc(CN2C(=O)N(c3ccc4c(c3)S(=O)(=O)CC4(C)C)C(=O)C2(C)C)ccn1` [Compound 190, 3-(3,3-dimethyl-1,1-dioxido-2,3-dihydrobenzo[b]thiophen-6-yl)-1-((2-(isopropylamino)pyridin-4-yl)methyl)-5,5-dimethylimidazolidine-2,4-dione]: the IC50 at IGF-1R [1] and on IGF-1R [2] was 2000 to 10000 nM in each case.

With `CC1(C)C(=O)N(c2ccc(C3(C(F)(F)F)CC3)cc2)C(=O)N1Cc1ccnc(NC2CCS(=O)(=O)C2)c1` (stereo not drawn) [Compound 136, 1-((2-((1,1-dioxidotetrahydrothiophen-3-yl)amino)pyridin-4-yl)methyl)-5,5-dimethyl-3-(4-(1-(trifluoromethyl)cyclopropyl)phenyl) imidazolidine-2,4-dione], the IC50 at IGF-1R [1] and on IGF-1R [2] was 500 to 2000 nM each time.

As to `CC(C)Nc1cc(CN2C(=O)N(c3ccc(C4(C(F)(F)F)CC4)cc3)C(=O)C2(C)C)ccn1` [Compound 84, 1-((2-(isopropylamino)pyridin-4-yl)methyl)-5,5-dimethyl-3-(4-(1-(trifluoromethyl)cyclopropyl)phenyl)imidazolidine-2,4-dione], the IC50 at IGF-1R [1] and on IGF-1R [2] was at most 500 nM throughout.

For `COC[C@@H](C)Nc1cc(CN2C(=O)N(c3ccc(S(=O)(=O)C(F)(F)F)cc3)C(=O)C2(C)C)ccn1` [Compound 318, (R)-1-((2-((1-methoxypropan-2-yl)amino)pyridin-4-yl)methyl)-5,5-dimethyl-3-(4-((trifluoromethyl)sulfonyl)phenyl) imidazolidine-2,4-dione], the IC50 at IGF-1R [1] and at IGF-1R [2] was at most 500 nM each time.

With `CC(C)(O)c1ccc(N2C(=O)N(Cc3ccnc(N)c3)C(C)(C)C2=O)cc1` [Compound 88, 1-((2-aminopyridin-4-yl)methyl)-3-(4-(2-hydroxypropan-2-yl)phenyl)-5,5-dimethylimidazolidine-2,4-dione], the IC50 at IGF-1R [1] was 2000 to 10000 nM; on IGF-1R [2], 500 to 2000 nM.

Consider `CC1(C)C(=O)N(c2ccc(SC(F)(F)F)cc2)C(=O)N1Cc1ccnc2c1CC(=O)N2` [Compound 12, 5,5-dimethyl-1-((2-oxo-2,3-dihydro-1H-pyrrolo[2,3-b]pyridin-4-yl)methyl)-3-(4-((trifluoromethyl)thio)phenyl)imidazolidine-2,4-dione], for which the IC50 at IGF-1R [1] and at IGF-1R [2] was at most 500 nM in each case.

`CC1(C)C(=O)N(c2ccc(SC(F)(F)F)cc2)C(=O)N1Cc1ccnc(N)c1C#N` [Compound 391, 2-amino-4-((5,5-dimethyl-2,4-dioxo-3-(4-((trifluoromethyl)thio)phenyl)imidazolidin-1-yl)methyl)nicotinonitrile]: the IC50 on IGF-1R [1] and on IGF-1R [2] was at most 500 nM throughout.

Regarding `CC1(C)C(=O)N(c2ccc(C3(C(F)(F)F)CC3)cc2)C(=O)N1Cc1ccnc(NCCS(C)(=O)=O)c1` [Compound 137, 5,5-dimethyl-1-((2-((2-(methylsulfonyl)ethyl)amino)pyridin-4-yl)methyl)-3-(4-(1-(trifluoromethyl)cyclopropyl)phenyl) imidazolidine-2,4-dione], the IC50 at IGF-1R [1] and on IGF-1R [2] was at most 500 nM in each case.

As to `CC(C)Nc1nccc(CN2C(=O)N(c3ccc(SC(F)(F)F)cc3)C(=O)C2(C)C)c1Br` [Compound 390, 1-((3-bromo-2-(isopropylamino)pyridin-4-yl)methyl)-5,5-dimethyl-3-(4-((trifluoromethyl)thio)phenyl)imidazolidine-2,4-dione], the values for the concentration for half-maximal inhibition (IC50) on IGF-1R [1] and on IGF-1R [2] were at most 500 nM and 2000 to 10000 nM, respectively.

Consider `CC1(C)C(=O)N(c2ccc(C3(C(F)(F)F)CC3)cc2)C(=O)N1Cc1ccnc(NC2CCS(=O)(=O)CC2)c1` [Compound 133, 1-((2-((1,1-dioxidotetrahydro-2H-thiopyran-4-yl)amino)pyridin-4-yl)methyl)-5,5-dimethyl-3-(4-(1-(trifluoromethyl)cyclopropyl)phenyl) imidazolidine-2,4-dione], for which the IC50 at IGF-1R [1] and at IGF-1R [2] was 500 to 2000 nM throughout.

Regarding `CC(C)Nc1cc(CN2C(=O)N(c3ccc(SC(F)(F)F)cc3)C(=O)[C@@H]2CO)ccn1` [Compound 298, (S)-5-(hydroxymethyl)-1-((2-(isopropylamino)pyridin-4-yl)methyl)-3-(4-((trifluoromethyl)thio)phenyl)imidazolidine-2,4-dione], the IC50 on IGF-1R [1] and at IGF-1R [2] was over 10000 nM in each case.

Turning to `CC1(C)C(=O)N(c2ccc(C3(C(F)(F)F)CC3)cc2)C(=O)N1Cc1ccnc2c1C(F)(F)C(=O)N2` [Compound 24, 1-((3,3-difluoro-2-oxo-2,3-dihydro-1H-pyrrolo[2,3-b]pyridin-4-yl)methyl)-5,5-dimethyl-3-(4-(1-(trifluoromethyl)cyclopropyl)phenyl) imidazolidine-2,4-dione], the IC50 on IGF-1R [1] and on IGF-1R [2] was at most 500 nM each time.

For `CC1(C)C(=O)N(c2ccc(SC(F)(F)F)cc2)C(=O)N1Cc1ccnc(N)c1Br` [Compound 388, 1-((2-amino-3-bromopyridin-4-yl)methyl)-5,5-dimethyl-3-(4-((trifluoromethyl)thio)phenyl)imidazolidine-2,4-dione], the IC50 on IGF-1R [1] and at IGF-1R [2] was at most 500 nM throughout.

For the molecule `CC1(C)C(=O)N(c2ccc(C3(C(F)(F)F)CCC3)cc2)C(=O)N1Cc1ccnc(NC2CCOCC2)c1` [Compound 130, 5,5-dimethyl-1-((2-((tetrahydro-2H-pyran-4-yl)amino)pyridin-4-yl)methyl)-3-(4-(1-(trifluoromethyl)cyclobutyl)phenyl) imidazolidine-2,4-dione], the IC50 at IGF-1R [1] and at IGF-1R [2] was at most 500 nM in each case.

For `CC1(C)C(=O)N(c2ccc(S(=O)(=O)C(F)(F)F)cc2)C(=O)N1Cc1ccnc2[nH]ccc12` [Compound 22, 1-((1H-pyrrolo[2,3-b]pyridin-4-yl)methyl)-5,5-dimethyl-3-(4-((trifluoromethyl)sulfonyl)phenyl) imidazolidine-2,4-dione], the IC50 on IGF-1R [1] and at IGF-1R [2] was at most 500 nM in each case.

As for `CC1(C)C(=O)N(c2ccc(C3(C(F)(F)F)CC3)cc2)C(=O)N1Cc1ccnc(N[C@@H]2CCOC2)c1` [Compound 118, (R)-5,5-dimethyl-1-((2-((tetrahydrofuran-3-yl)amino)pyridin-4-yl)methyl)-3-(4-(1-(trifluoromethyl)cyclopropyl)phenyl) imidazolidine-2,4-dione], the IC50 at IGF-1R [1] and at IGF-1R [2] was at most 500 nM each time.

Regarding `CN1C(=O)C2(CC2)c2ccc(N3C(=O)N(Cc4ccnc(N)c4)C(C)(C)C3=O)cc21` [Compound 402, 1-((2-aminopyridin-4-yl)methyl)-5,5-dimethyl-3-(1′-methyl-2′-oxospiro[cyclopropane-1,3′-indolin]-6′-yl)imidazolidine-2,4-dione], the 50% inhibitory concentration (IC50) on IGF-1R [1] and on IGF-1R [2] was 2000 to 10000 nM in each case.

As to `CC(C)(C#N)Nc1cc(CN2C(=O)N(c3ccc(C4(C(F)(F)F)CC4)cc3)C(=O)C2(C)C)ccn1` [Compound 109, 2-((4-((5,5-dimethyl-2,4-dioxo-3-(4-(1-(trifluoromethyl)cyclopropyl)phenyl)imidazolidin-1-yl)methyl)pyridin-2-yl)amino)-2-methylpropanenitrile], the 50% inhibitory concentration (IC50) at IGF-1R [1] and at IGF-1R [2] was at most 500 nM in each case.

Take `CC1(C)C(=O)N(c2ccc(S(=O)(=O)C(F)(F)F)cc2)C(=O)N1Cc1ccnc2c1CC(=O)N2` [Compound 23, 5,5-dimethyl-1-((2-oxo-2,3-dihydro-1H-pyrrolo[2,3-b]pyridin-4-yl)methyl)-3-(4-((trifluoromethyl)sulfonyl)phenyl)imidazolidine-2,4-dione]: the IC50 at IGF-1R [1] and on IGF-1R [2] was at most 500 nM in each case.
